Holding throughout (experiment): Bliss excess, mean over the matrix (fraction); higher = more synergy
Test [1] has as its system PANC-10-05 (Pancreatic Carcinoma). The essentials: (§1)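 Bliss excess equals the observed combination effect minus the expected value EA + EB − EA·EB, where EA and EB are the effects of each agent alone. Combination Emax is the second-highest inhibition within the matrix. Inhibition was scaled from CellTiter-Glo 2.0 luminescence, with 0 set by vehicle wells and 1 by blank wells, after 72 hours of two-drug dosing of cells plated in 1536-well plates.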

Test [2] relates to TT2609-C02 (Thyroid Gland Carcinoma). The essentials:
as §1

Test [3] deals with SK-MG-1 (Low Grade Glioma). Summed up: as §1
Test [4] concerns LN-405 (Glioblastoma). Summed up: as §1
Test [5] has as its system NCI-H64 (Small Cell Lung Carcinoma). The essentials: as §1
Test [6] concerns JSC-1 (B-Cell Non-Hodgkin's Lymphoma). Summed up:
as §1

The test system of test [7] is SK-MES-1 (Squamous Cell Lung Carcinoma). The essentials:
as §1

Test [8] relates to A498 (Kidney Carcinoma). The essentials:
as §1

In test [9] the test system is ARH-77 (Non-Cancerous). Summed up: as §1
Test [10] deals with HCC1954 (Breast Carcinoma). The essentials:
as §1

Test [11] relates to 8-MG-BA (Glioblastoma). The essentials:
as §1

Test [12] concerns CAL-29 (Bladder Carcinoma). The essentials:
as §1

The subject of test [13] is TT (Thyroid Gland Carcinoma). Summed up: as §1
The test system of test [14] is NCI-H2066 (Squamous Cell Lung Carcinoma). The essentials: as §1
Test [15] deals with GI-ME-N (Neuroblastoma). Summed up: as §1
In test [16] the test system is VCaP (Prostate Carcinoma). Summed up:
as §1

Test [17] deals with A3-KAW (B-Cell Non-Hodgkin's Lymphoma). The essentials: as §1
In test [18] the test system is IGR-37 (Melanoma). The essentials: as §1
In test [19] the test system is NCI-H2591 (Mesothelioma). Summed up:
as §1

Test [20] deals with A549 (Lung Adenocarcinoma). Summed up: as §1

With `CN(CCO)CC[C@H](CSc1ccccc1)Nc1ccc(S(=O)(=O)NC(=O)c2ccc(N3CCC([C@@H](O)c4ccccc4-c4ccc(Cl)cc4)CC3)cc2)cc1S(=O)(=O)C(F)(F)F` [AZD4320] + C1CN(CCC1(C(=O)N[C@@H](CCO)C2=CC=C(C=C2)Cl)N)C3=NC=NC4=C3C=CN4 [Capivasertib] (first compound max 1 µM, 7x7, partner max 3 µM), the Bliss excess was -0.0338 in test [1]; -0.0582 in test [2]; -0.048 in [3]; -0.0454 in test [4]; -0.028 in test [5]; -0.0187 in test [6]. In addition, the Bliss excess in [7] is -0.0608; in test [8] it was -0.0049; in test [9] it was 0.0277; in test [10], 0.0377; in test [11], -0.0071; in test [12] it was -0.0397. The Bliss excess is -0.0456 in test [13]; 0.0311 in [14]; -0.0729 in [15]; 0.0013 in [16]; -0.0211 in [17]; -0.0389 in test [18]. Besides, the Bliss excess in test [19] was -0.0455; in [20], -0.0589.
`CN(CCO)CC[C@H](CSc1ccccc1)Nc1ccc(S(=O)(=O)NC(=O)c2ccc(N3CCC([C@@H](O)c4ccccc4-c4ccc(Cl)cc4)CC3)cc2)cc1S(=O)(=O)C(F)(F)F` [AZD4320] + C=CCn1c(=O)c2cnc(Nc3ccc(N4CCN(C)CC4)cc3)nc2n1-c1cccc(C(C)(C)O)n1 [AZD1775] (first compound max 1 µM, partner max 1 µM): the Bliss excess in [1] was -0.0174; in test [2] it was -0.0244; in test [3], 0.064; in test [4], 0.0173; in [5] it was 0.0886; in [6], -0.0077. For the same compound, the Bliss excess was 0.0356 in test [7]; 0.0368 in test [8]; -0.0449 in test [9]; 0.0823 in [10]; -0.0417 in [11]; 0.0124 in test [12]. Further, the Bliss excess in [13] is -0.0048; in test [14], -0.0534; in [15], -0.0524; in test [16] it was 0.0072; in test [17], 0.0279; in test [18], 0.0354. Also, the Bliss excess in [19] is -0.0701; in [20] it was -0.0429.
Turning to `CN(CCO)CC[C@H](CSc1ccccc1)Nc1ccc(S(=O)(=O)NC(=O)c2ccc(N3CCC([C@@H](O)c4ccccc4-c4ccc(Cl)cc4)CC3)cc2)cc1S(=O)(=O)C(F)(F)F` [AZD4320] + CCN(CCO)CCCOc1ccc2c(Nc3cc(CC(=O)Nc4cccc(F)c4)[nH]n3)ncnc2c1 [AZD2811] (first compound max 1 µM, 7x7, partner max 1 µM), the Bliss excess in test [1] is -0.0758; in test [2], 0.0411; in [3], 0.0981; in test [4] it was 0.014; in [5], 0.158; in test [6], 0.0215. For the same compound, the Bliss excess in test [7] is -0.0328; in test [8] it was -0.0371; in test [9], 0.0992; in test [10], 0.149; in [11] it was 0.003; in test [12], 0.103. Moreover, the Bliss excess in [13] is 0.0345; in test [14], -0.0391; in test [15], -0.057; in [16], 0.0003; in [17], 0.0628; in [18] it was -0.0204. Besides, the Bliss excess in test [19] is 0.0015; in test [20], -0.149.
For `CN(CCO)CC[C@H](CSc1ccccc1)Nc1ccc(S(=O)(=O)NC(=O)c2ccc(N3CCC([C@@H](O)c4ccccc4-c4ccc(Cl)cc4)CC3)cc2)cc1S(=O)(=O)C(F)(F)F` [AZD4320] + CN(C)CCCOc1ccc(-c2ccc3ncc4c(c3c2)n(C2CCOCC2)c(=O)n4C)cn1 [AZD0156] (first compound max 1 µM, 7x7, partner max 1 µM), the Bliss excess in test [1] was -0.0489; in test [2], -0.0325; in [3], -0.0377; in test [4] it was 0.0093; in [5], 0.0003; in [6], -0.0076. In addition, the Bliss excess in [7] was -0.005; in test [8], -0.0358; in [9] it was -0.0283; in test [10] it was 0.0526; in [11], -0.0146; in test [12], -0.0187. Further, the Bliss excess in [13] was -0.0778; in [14], -0.092; in test [15] it was -0.0454; in test [16], -0.0185; in test [17], -0.0197; in test [18], -0.0148. Further, the Bliss excess in test [19] was -0.0508; in test [20] it was -0.039.
In the case of `CN(CCO)CC[C@H](CSc1ccccc1)Nc1ccc(S(=O)(=O)NC(=O)c2ccc(N3CCC([C@@H](O)c4ccccc4-c4ccc(Cl)cc4)CC3)cc2)cc1S(=O)(=O)C(F)(F)F` [AZD4320] + C[C@@H]1COCCN1C2=NC(=NC(=C2)C3(CC3)[S@](=N)(=O)C)C4=C5C=CNC5=NC=C4 [AZD6738] (first compound max 1 µM, 7x7, partner max 10 µM), the Bliss excess was -0.0476 in [1]; -0.0542 in [2]; 0.0076 in test [3]; 0.0063 in [4]; -0.0404 in [5]; -0.0276 in test [6]. For the same compound, the Bliss excess was 0.0228 in [7]; -0.157 in [8]; -0.0049 in test [9]; 0.0289 in test [10]; 0.0107 in [11]; 0.0426 in test [12]. Besides, the Bliss excess in test [13] is -0.033; in test [14], -0.0437; in test [15] it was -0.0403; in test [16] it was -0.0287; in test [17], -0.0229; in test [18], 0.0151. The Bliss excess was -0.0462 in test [19] and -0.0778 in [20].
On to `CN(CCO)CC[C@H](CSc1ccccc1)Nc1ccc(S(=O)(=O)NC(=O)c2ccc(N3CCC([C@@H](O)c4ccccc4-c4ccc(Cl)cc4)CC3)cc2)cc1S(=O)(=O)C(F)(F)F` [AZD4320] + C[C@@H](Nc1cc(F)cc(F)c1)c1cc(C(=O)N(C)C)cc2c(=O)cc(N3CCOCC3)oc12 [AZD8186] (first compound max 1 µM, 7x7, partner max 3 µM), for which the Bliss excess is -0.073 in [1]; 0.0003 in [2]; -0.0189 in [3]; -0.0504 in [4]; -0.0372 in test [5]; 0.0639 in [6]. In addition, the Bliss excess in [7] was 0.031; in test [8] it was 0.0903; in test [9], 0.0067; in test [10] it was 0.0622; in test [11], -0.0301; in [12], -0.0215. Besides, the Bliss excess was -0.061 in [13]; -0.0671 in test [14]; 0.0272 in [15]; 0.0559 in test [16]; 0.0229 in [17]; 0.029 in test [18]. Also, the Bliss excess is 0.0135 in [19] and -0.0964 in test [20].

Source of the values: the supplement of paper PMC11061612.
